Reference: patent US20240115557A1, “INHIBITORS OF RNA-GUIDED NUCLEASES AND USES THEREOF” (The Brigham and Women's Hospital, Inc., priority 2022, published 2024)

How the values were obtained:
FnCpf1 = FnCpf1 (Francisella tularensis subsp. novicida, UniProt A0Q7Q2); format: biochemical; conditions: 20 uM
[1] = system: restriction endonuclease Nde1; assay: Gel cleavage specificity assay, Nde1; format: biochemical; conditions: 20 uM
SpCas9 [2] = molecular target: T1, SpCas9 (Streptococcus pyogenes serotype M1, UniProt Q99ZW2); assay: Strand displacement assay (SDA) / cumulative activity assay (CAA), SpCas9 primary screen; format: biochemical; conditions: Primary Screen (150 min); for Average Normalized Z score: average of replicates; for Normalized Z score 1: replicate 1; for Normalized Z score 2: replicate 2
How it was run: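 SpCas9:gRNA RNP in 20 mM Tris-HCl pH 7.5, 100 mM KCl, 5 mM MgCl2 was used at 10 nM (2× stock) with Alexa Fluor 647-labelled substrate and excess quencher strand (1 nM and 5 nM, 2× stocks). Fluorescence was read after 2.5 h at 37 °C, where cleavage lets the quencher strand anneal.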

SpCas9 [3] = molecular target: T1, SpCas9; assay: eGFP disruption assay, SpCas9, U2OS.eGFP.PEST cells; format: cell-based; conditions: for % GFP+, Rep 1 / Z score Rep1 / Normalized Z rep1: replicate 1; for % GFP+, Rep 2 / Z socre Rep2 / Normalized Z rep2: replicate 2; for SpCas9 eGFP disruption Rep1: replicate 1, raw readout; for SpCas9 eGFP disruption Rep1 / SpCas9 eGFP disruption Rep2: Cas9 = lower control, Ctrl = upper control; for Normalized Z rep1 / Normalized Z rep2: lower control about 0, upper control about 1; for SpCas9 eGFP disruption Rep2: replicate 2, raw readout
How it was run: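 U2OS.eGFP.PEST cells nucleofected with 300 ng SpCas9 plasmid plus 30 ng eGFP-targeting gRNA plasmid, or with SpCas9 RNP (10 pmol protein, 12 pmol gRNA). Cells then incubated 24 h with compound (20 μM in screening). Inhibition is read as rescue of eGFP fluorescence in paraformaldehyde-fixed, nuclear-stained cells.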

SpCas9 [4] = molecular target: T1, SpCas9; assay: HiBiT knock-in assay, SpCas9, HEK293T cells; format: cell-based
Source text: Primary and secondary screening. The primary screen assayed a selection of unique chemical scaffolds derived from commercially available compounds and known bioactive molecular libraries (Table 7). Auto-fluorescent compounds were removed by a counter screen. Overall, the CAA was used to assay 122,409 small molecules with over 2,500 unique chemical scaffolds (FIG. 64F, Table 7). Of these compounds, 547 were selected as hits (Z score >3 in both replicates) for testing in orthogonal cell-based secondary assays. Hits were tested in duplicate in an eGFP disruption assay, wherein U2OS.eGFP.PEST cells^33 transfected with SpCas9 plasmid and eGFP-targeting gRNA plasmid were incubated with 20 μM of the compounds. In this assay, any compound that inhibited SpCas9 would rescue the loss of eGFP fluorescence. Here, toxic and auto-fluorescent compounds with a high GFP signal in cells were removed as false positives. […] Next, Applicants tested the 15 compounds in a luminescence-based gain-of-signal HiBiT knock-in assay, which involves SpCas9-mediated homology-directed tagging of GAPDH with a short peptide that luminesces upon complementation with a subunit derived from nanoluciferase.^34 Complementarily, the eGFP-disruption assay is fluorescence-based and involves error-prone DNA repair. As a counter-screen to remove false positives caused by cell death (viability <80%), the cell viability was measured after incubation.
Approximately 400,000 HEK293T cells were nucleofected with 400 ng of SpCas9 plasmid, 40 ng of GAPDH-targeting gRNA plasmid, and 40 pmol of single-strand oligodeoxynucleotide (ssODN) using SF Cell Line 4D-Nucleofector X Kit (Lonza) following the pulse program of DS-150. For RNP-based genome editing, 10 pmol of Cas9 and 12 pmol of gRNA were mixed and incubated for 5 min. Then, 20 pmol of ssODN was added. Cells were nucleofected with the resulting mixture using the same pulse program. Cells were then transferred to a 96-well plate at the density of 35,000 cells per well, and incubated with indicated amount of compounds for 24 h. Cell viability was measured using PrestoBlue reagent (Thermo) with a SpectraMax M5 (Molecular Devices) at the excitation and emission wavelength of 544 nm and 590 nm, respectively. Next, luminescence measurement was performed using the Nano-Glo HiBiT Lytic Detection System (Promega) according to the manufacturer's protocol with an EnVision Multilabel Plate Reader (PerkinElmer) at the integration time of 0.5 s per well. The resulting luminescence signals were normalized based on the cell viability.^34

SpCas9:gRNA complex [5] = molecular target: T2, SpCas9:gRNA complex (Streptococcus pyogenes serotype M1, UniProt Q99ZW2); assay: biochemical
SpCas9:gRNA complex [6] = molecular target: T2, SpCas9:gRNA complex; conditions: control without BRD7586 scaffold
SpCas9:gRNA = SpCas9:gRNA (Streptococcus pyogenes serotype M1, UniProt Q99ZW2); assay: Photo-crosslinking to purified SpCas9:gRNA; format: binding; conditions: 1 μM probe, 1 μM SpCas9:gRNA, UV 365 nm
Protocol: Cas9 RNP complex was formed by mixing Cas9 (1 μM) and the eGFP-targeting gRNA (1 μM) in a binding buffer (HEPES 20 mM, KCl 100 mM, pH 7.6) for 15 min. Next, BRD7586 (5 μM) was added to the mixture when competition is required (the last lane of FIG. 68B). Finally, Diazirine-BRD7586 was added (1 μM) and the mixture was incubated for 20 min at RT with a final reaction volume of 20 μL in a PCR tube. The mixture was irradiated with UV (365 nm) for 5 min on ice, then 2.5 μL of 10% RapiGest SF solution in PBS was added. Click chemistry was initiated by adding 100 μM of TAMRA-azide (Sigma #760757), 350 μM of Cu-TBTA, and 1.5 mM ascorbate with a final reaction volume of 27 μL. The reaction was conducted for 1 h at 30° C., then SDS-PAGE was performed immediately. The fluorescence gel scanning was conducted using an Azure 600 (Azure Biosystem) to detect the TAMRA fluorescence.

SpCas9 [7] = molecular target: T1, SpCas9; assay: T7E1 assay for indels at the eGFP gene; format: cell-based; conditions: U2OS.eGFP.PEST, 24 h
Protocol: FIG. 72A-72E Validation of BRD7586 in cells FIG. 72A T7E1 assay for detecting indels at the eGFP gene. U20S.eGFP.PEST cells were nucleofected with plasmid and incubated with BRD7586 for 24 h. Blue arrowheads indicate uncleaved DNA and black arrowheads indicate cleaved DNA. FIG. 72B T7E1 for detecting indels at the eGFP gene. U20S.eGFP.PEST cells were nucleofected with RNP and incubated with BRD7586 for 24 h. Blue arrowheads indicate uncleaved DNA and black arrowheads indicate cleaved DNA FIG. 72C Inhibition of SpCas9 by BRD0539 and BRD7586 in the eGFP disruption assay using plasmid delivery method and RNP delivery method (U20S.eGFP.PEST cells, 24 h). Error bars represent SD from 3 or 4 independent experiments. […]
FIG. 75A-75E Mechanism of action studies of BRD7586 FIG. 75A Workflow of the chemoproteomics experiments using the diazirine-based photo-crosslinking probe to identify binding sites of BRD7586 on SpCas9 FIG. 75B T7E1 assay for measuring the activity of Diazirine-BRD7586. […] Blue arrowheads indicate uncleaved DNA while black arrowheads indicate cleaved DNA from the T7E1 reaction FIG. 75C Chemical structure of the acid-cleavable and isotope-coded biotin-azide used for chemoproteomics experiments FIG. 75D Structure of the peptide-compound conjugates to be detected from the mass spectrometry. […]

Sequence of FnCpf1 (A0Q7Q2 whole entry, looked up): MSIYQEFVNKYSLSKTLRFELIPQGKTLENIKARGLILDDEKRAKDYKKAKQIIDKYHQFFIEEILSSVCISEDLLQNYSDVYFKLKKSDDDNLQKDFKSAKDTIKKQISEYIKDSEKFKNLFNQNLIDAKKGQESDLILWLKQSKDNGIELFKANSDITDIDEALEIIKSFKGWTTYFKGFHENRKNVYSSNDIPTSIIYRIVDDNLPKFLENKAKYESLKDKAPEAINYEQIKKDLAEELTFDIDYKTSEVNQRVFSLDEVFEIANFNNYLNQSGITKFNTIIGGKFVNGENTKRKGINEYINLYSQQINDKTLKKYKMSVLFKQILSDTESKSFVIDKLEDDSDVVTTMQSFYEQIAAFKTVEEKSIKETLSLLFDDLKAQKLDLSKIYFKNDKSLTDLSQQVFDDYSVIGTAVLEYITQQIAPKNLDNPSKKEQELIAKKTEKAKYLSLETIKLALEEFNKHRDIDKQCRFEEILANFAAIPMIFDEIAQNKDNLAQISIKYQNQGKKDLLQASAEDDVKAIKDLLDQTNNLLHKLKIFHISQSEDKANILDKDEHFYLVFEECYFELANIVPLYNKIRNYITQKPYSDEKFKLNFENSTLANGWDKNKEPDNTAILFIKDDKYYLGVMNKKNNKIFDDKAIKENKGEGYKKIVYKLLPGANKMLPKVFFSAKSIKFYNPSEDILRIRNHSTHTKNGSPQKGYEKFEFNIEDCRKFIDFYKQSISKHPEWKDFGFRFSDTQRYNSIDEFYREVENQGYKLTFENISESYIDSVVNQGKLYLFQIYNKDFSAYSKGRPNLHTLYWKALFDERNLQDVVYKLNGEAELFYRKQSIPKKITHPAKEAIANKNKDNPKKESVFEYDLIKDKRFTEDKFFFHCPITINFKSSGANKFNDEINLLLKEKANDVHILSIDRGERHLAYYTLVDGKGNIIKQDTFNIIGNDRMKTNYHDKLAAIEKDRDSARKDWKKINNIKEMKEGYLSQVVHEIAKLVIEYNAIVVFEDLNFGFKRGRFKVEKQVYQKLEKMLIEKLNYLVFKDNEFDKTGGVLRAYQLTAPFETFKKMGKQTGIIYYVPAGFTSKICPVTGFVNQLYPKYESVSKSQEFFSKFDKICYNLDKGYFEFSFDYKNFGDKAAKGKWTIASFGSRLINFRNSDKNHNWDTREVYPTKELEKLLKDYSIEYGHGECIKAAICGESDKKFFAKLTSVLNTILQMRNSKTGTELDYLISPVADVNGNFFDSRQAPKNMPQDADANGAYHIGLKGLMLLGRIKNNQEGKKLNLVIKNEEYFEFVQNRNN
T1 sequence (Q99ZW2 whole entry): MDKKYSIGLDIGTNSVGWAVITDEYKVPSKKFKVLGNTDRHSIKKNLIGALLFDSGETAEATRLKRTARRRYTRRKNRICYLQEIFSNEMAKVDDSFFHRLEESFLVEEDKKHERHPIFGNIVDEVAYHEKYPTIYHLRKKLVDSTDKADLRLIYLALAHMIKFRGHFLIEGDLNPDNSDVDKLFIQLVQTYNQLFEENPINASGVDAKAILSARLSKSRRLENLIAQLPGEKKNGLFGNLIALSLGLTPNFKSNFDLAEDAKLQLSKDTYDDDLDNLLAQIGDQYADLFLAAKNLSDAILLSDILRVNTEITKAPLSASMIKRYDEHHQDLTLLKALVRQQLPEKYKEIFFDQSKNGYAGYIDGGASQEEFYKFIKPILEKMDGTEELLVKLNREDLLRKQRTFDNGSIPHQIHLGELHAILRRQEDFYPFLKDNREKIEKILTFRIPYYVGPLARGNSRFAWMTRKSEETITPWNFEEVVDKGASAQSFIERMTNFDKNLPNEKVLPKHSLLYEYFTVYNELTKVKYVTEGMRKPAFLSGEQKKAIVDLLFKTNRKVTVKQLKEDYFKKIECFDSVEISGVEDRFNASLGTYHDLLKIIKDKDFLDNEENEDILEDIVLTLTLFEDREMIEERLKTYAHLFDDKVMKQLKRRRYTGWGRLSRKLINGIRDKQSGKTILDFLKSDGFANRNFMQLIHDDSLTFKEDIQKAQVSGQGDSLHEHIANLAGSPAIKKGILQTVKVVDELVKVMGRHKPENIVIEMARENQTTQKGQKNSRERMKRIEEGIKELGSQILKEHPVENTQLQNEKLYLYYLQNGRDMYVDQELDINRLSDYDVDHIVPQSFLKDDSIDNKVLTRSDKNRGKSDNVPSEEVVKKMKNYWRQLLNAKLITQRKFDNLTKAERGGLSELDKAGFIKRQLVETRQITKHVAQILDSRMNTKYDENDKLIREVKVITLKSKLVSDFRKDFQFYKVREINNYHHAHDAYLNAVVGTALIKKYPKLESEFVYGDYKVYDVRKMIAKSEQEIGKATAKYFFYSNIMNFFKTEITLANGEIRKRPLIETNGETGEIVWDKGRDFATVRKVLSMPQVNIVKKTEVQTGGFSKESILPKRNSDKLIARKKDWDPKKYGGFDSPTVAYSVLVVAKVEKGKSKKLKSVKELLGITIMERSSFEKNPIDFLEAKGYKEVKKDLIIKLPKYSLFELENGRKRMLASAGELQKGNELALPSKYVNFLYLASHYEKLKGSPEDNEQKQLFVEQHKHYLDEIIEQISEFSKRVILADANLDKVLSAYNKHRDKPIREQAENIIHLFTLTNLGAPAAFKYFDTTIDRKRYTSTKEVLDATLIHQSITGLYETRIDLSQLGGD
T2 sequence (Q99ZW2 whole entry, one chain of several): as the sequence (Q99ZW2 whole entry) above

SMILES | Activity against FnCpf1 in gel cleavage assay (FnCpf1) | Activity against Nde1 in gel cleavage assay [1] | avg z score primary (SpCas9 [2]) | Average Normalized Z score (SpCas9 [2]) | Normalized Z score 1 (SpCas9 [2]) | Normalized Z score 2 (SpCas9 [2]) | eGFP disruption-% inhibition (SpCas9 [3]) | % GFP+, Rep 1 (SpCas9 [3]; eGFP assay) | Z score Rep1 (SpCas9 [3]; eGFP assay) | % GFP+, Rep 2 (SpCas9 [3]; eGFP assay) | Z score Rep1 (SpCas9 [3]) | SpCas9 eGFP disruption Rep1 (SpCas9 [3]) | Normalized Z rep1 (SpCas9 [3]) | Z socre Rep2 (SpCas9 [3]) | SpCas9 eGFP disruption Rep2 (SpCas9 [3]) | Normalized Z rep2 (SpCas9 [3]) | Hibit assay-% inhibition (SpCas9 [4]) | also measured
CCc1cccc(-n2nnnc2N2CCN(C(=O)Nc3cccc(C)c3)CC2)c1 [Compound L378-0350] | active in Fncpf1 | not Nde1 |  |  |  |  |  |  |  |  |  |  |  |  |  |  |  | 
CCc1cccc(-n2nnnc2N2CCN(C(=O)Nc3ccc(C)cc3C)CC2)c1 [Compound L378-0355] | active in Fncpf1 | not Nde1 |  |  |  |  |  |  |  |  |  |  |  |  |  |  |  | 
CCc1cccc(-n2nnnc2N2CCN(C(=O)Nc3ccc(Br)c(C)c3)CC2)c1 [Compound L378-0372] | active in Fncpf1 | not Nde1 |  |  |  |  |  |  |  |  |  |  |  |  |  |  |  | 
CCN1C(=O)c2cccc3cccc1c23 [Compound T0503-6911] |  |  | 6.86 | 0.08 | 0.06 | 0.10 | 26.33% | 67.52% | 3.76 | 66.59% | 3.76 | 67.522 | 0.26 | 6.09 | 66.588 | 0.29 | 18.06% | 
NC1=C(c2nc3ccccc3s2)C(=O)CN1N=Cc1ccc(-c2ccc(S(=O)(=O)Nc3ncccn3)cc2)o1 [Compound T5371551] |  |  | 9.04 | 0.60 | 0.61 | 0.58 | 22.88% | 64.28% | 2.50 | 76.75% | 2.50 | 64.278 | 0.17 | 11.57 | 76.754 | 0.56 | −12.66% | 
Cc1nc2ccccc2c(C)c1CC(=O)N1CCN(c2ccc(O)cc2)CC1 [Compound T5461482] |  |  | 3.23 | 0.10 | 0.09 | 0.10 | 24.48% | 66.84% | 3.50 | 67.11% | 3.50 | 66.842 | 0.24 | 6.37 | 67.113 | 0.31 | 36.6% | 
O=C(CSc1nccn1-c1cccc(F)c1)N1CCN(c2ccc(O)cc2)CC1 [Compound T5535170] |  |  | 4.37 | 0.31 | 0.28 | 0.33 | 27.53% | 67.96% | 3.93 | 65.34% | 3.93 | 67.964 | 0.28 | 5.41 | 65.339 | 0.26 | 68.25% | 
O=C(CCCCC1SC[C@H]2NC(=O)N[C@@H]12)NCCOCCOCCOCCC(=O)NCCOc1ccc(S(=O)(=O)CCC(=O)Nc2nc(-c3ccncc3)cs2)cc1 (stereo partly shown) [biotin-BRD7586] |  |  |  |  |  |  |  |  |  |  |  |  |  |  |  |  |  | Kd (SpCas9:gRNA complex [5]): 520 nM
[N-]=[N+]=NCCOCCOCCOCCNC(=O)CCCC[C@@H]1SC[C@@H]2NC(=O)N[C@@H]21 [biotin-PEG3-azide] |  |  |  |  |  |  |  |  |  |  |  |  |  |  |  |  |  | Binding in BLI (SpCas9:gRNA complex [6]): No detectable binding
C#CCCC1(CCOc2ccc(S(=O)(=O)CCC(=O)Nc3nc(-c4ccncc4)cs3)cc2)N=N1 [diazirine-BRD7586] |  |  |  |  |  |  |  |  |  |  |  |  |  |  |  |  |  | Photo-crosslinking to SpCas9 (SpCas9:gRNA): successful covalent conjugation of the probe to SpCas9; Inhibition of SpCas9 in cells by probe (SpCas9 [7]): inhibited SpCas9 in cells
